Measured values from patent US8927587B2, “Chemical compounds” (Pfizer Limited, priority 2012, dated 2015).

Target: T1, hNav1.8 (Homo sapiens, UniProt Q9Y5Y9)
T1 construct: host or cells: HEK cells, stably transfected
Test: hNav1.8 whole-cell patch-clamp electrophysiology (conventional or PatchXpress 7000) in stably transfected HEK cells
Type: cell-based
Conditions: estimated IC50 calculated from single point % inhibition; HEK cells expressing hNav1.8; 8 sec prepulse to V1/2, 20 msec step to 0 mV; average of replicates; read-out: Nav1.8 EIC50
Source text: The ability of the benzimidazole derivatives of the formula (I) to inhibit the Nav1.8 channel may be measured using the assay described below.
HEK cells stably transfected with hNav1.8, purchased from Millipore (Millipore Corp., Billerica, Mass. 01821), were maintained according to manufacturer's instructions. For electrophysiological studies, cells were removed from the culture flask by brief trypsinization and re-plated at low density onto glass cover slips. Cells were typically used for electrophysiological experiments within 24 to 72 h after plating.
Cover slips containing HEK cells expressing hNav1.8 were placed in a bath on the stage of an inverted microscope and perfused (approximately 1 ml/min) with extracellular solution of the following composition: 138 mM NaCl, 2 mM CaCl2, 5.4 mM KCl, 1 mM MgCl2, 10 mM glucose, and 10 mM HEPES, pH 7.4, with NaOH. […] The osmolarity of the extracellular and intracellular solutions was 300 mOsm/kg and 295 mOsm/kg, respectively. All recordings were made at room temperature (22-24° C.) using AXOPATCH 200B amplifiers and PCLAMP software (Axon Instruments, Burlingame, Calif.).
hNav1.8 currents in HEK cells were measured using the whole-cell configuration of the patch-clamp technique (Hamill et al., 1981). Uncompensated series resistance was typically 2 to 5 mega ohms and >85% series resistance compensation was routinely achieved. As a result, voltage errors were negligible and no correction was applied. Current records were acquired at 20 to 50 KHz and filtered at 5 to 10 KHz.
HEK cells stably transfected with hNav1.8 were viewed under Hoffman contrast optics and placed in front of an array of flow pipes emitting either control or compound-containing extracellular solutions. All compounds were dissolved in dimethyl sulfoxide to make 10 mM stock solutions, which were then diluted into extracellular solution to attain the final concentrations desired.
The voltage-dependence of inactivation was determined by applying a series of depolarizing prepulses (8 sec long in 10 mV increments) from a negative holding potential. The voltage was then immediately stepped to 0 mV to assess the magnitude of the sodium current. Currents elicited at 0 mV were plotted as a function of prepulse potential to allow estimation of the voltage at which 50% of the channels were inactivated (midpoint of inactivation or V1/2). Compounds were tested for their ability to inhibit hNav1.8 sodium channels by activating the channel with a 20 msec voltage step to 0 mV following an 8 second conditioning prepulse to the empirically determined V1/2. Compound effect (% inhibition) was determined by difference in current amplitude before and after application of test compounds. For ease of comparison, “estimated IC50” values were calculated from single point electrophysiology data by the following equation, (tested concentration, uM)×(100-% inhibition/% inhibition). Inhibition values<20% and >80% were excluded from the calculation.
In some cases electrophysiological assays were conducted with PatchXpress 7000 hardware and associated software (Molecular Devices Corp). All assay buffers and solutions were identical to those used in conventional whole-cell voltage clamp experiments described above. hNav1.8 cells were grown as above to 50%-80% confluency and harvested by trypsinization. Trypsinized cells were washed and resuspended in extracellular buffer at a concentration of 1×10^6 cells/ml. The onboard liquid handling facility of the PatchXpress was used for dispensing cells and application of test compounds. Determination of the voltage midpoint of inactivation was as described for conventional whole-cell recordings. Cells were then voltage-clamped to the empirically determined V1/2 and current was activated by a 20 msec voltage step to 0 mV.
Estimated IC50 values for the compounds of formula (I) exemplified above are as follows. […]

T1 sequence (Q9Y5Y9 whole entry): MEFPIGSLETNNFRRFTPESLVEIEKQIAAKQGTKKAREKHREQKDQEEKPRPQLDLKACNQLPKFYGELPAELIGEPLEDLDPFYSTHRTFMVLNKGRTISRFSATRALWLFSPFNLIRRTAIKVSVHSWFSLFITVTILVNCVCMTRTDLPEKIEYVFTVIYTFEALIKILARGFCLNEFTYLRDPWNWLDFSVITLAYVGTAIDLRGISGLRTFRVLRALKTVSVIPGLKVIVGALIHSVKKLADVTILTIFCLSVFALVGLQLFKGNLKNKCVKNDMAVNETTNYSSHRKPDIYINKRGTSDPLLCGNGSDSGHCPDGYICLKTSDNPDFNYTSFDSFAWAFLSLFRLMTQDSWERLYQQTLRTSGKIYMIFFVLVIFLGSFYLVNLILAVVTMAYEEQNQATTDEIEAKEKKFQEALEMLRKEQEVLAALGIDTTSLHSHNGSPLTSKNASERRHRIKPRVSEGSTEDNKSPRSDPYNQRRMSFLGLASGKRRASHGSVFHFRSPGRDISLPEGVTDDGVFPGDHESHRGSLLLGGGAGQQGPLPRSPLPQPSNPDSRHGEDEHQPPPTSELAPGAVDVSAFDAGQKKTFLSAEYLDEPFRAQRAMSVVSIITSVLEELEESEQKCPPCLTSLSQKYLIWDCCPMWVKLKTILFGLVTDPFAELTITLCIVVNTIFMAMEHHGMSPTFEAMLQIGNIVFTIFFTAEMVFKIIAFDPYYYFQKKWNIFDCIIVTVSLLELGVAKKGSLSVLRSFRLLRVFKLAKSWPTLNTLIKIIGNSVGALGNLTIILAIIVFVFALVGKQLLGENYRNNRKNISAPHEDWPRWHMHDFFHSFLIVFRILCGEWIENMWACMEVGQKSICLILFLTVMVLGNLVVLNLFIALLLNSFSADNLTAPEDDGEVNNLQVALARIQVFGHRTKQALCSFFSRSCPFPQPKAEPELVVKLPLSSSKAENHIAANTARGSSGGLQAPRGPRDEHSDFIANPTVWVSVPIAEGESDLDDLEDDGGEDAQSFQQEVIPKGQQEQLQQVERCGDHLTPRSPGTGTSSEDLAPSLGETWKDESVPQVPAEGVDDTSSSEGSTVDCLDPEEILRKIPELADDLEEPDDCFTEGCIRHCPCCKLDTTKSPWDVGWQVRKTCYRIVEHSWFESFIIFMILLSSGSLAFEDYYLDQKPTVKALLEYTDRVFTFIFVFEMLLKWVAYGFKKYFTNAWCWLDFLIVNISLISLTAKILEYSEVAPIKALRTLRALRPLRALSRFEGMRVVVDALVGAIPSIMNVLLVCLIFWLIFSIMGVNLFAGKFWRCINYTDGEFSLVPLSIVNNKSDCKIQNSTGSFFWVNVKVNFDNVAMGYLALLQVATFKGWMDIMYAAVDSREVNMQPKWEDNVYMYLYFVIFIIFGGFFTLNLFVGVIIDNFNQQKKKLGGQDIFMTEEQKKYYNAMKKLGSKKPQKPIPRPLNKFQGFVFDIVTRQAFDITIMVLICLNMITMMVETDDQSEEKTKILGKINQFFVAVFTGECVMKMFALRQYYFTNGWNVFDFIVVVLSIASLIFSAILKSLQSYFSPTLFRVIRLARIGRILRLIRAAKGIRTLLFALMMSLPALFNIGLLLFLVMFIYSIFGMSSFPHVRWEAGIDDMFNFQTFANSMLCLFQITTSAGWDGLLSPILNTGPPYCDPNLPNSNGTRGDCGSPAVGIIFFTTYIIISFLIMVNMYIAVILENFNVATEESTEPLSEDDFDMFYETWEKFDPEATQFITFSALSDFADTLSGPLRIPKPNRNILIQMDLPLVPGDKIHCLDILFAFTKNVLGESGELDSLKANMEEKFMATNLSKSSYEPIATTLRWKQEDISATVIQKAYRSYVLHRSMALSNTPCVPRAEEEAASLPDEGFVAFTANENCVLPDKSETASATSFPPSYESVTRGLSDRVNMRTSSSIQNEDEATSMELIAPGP

Row | IC50 | SMILES
1 | 227 nM | N#Cc1ccc(-c2ccc3[nH]c([C@H](N)c4ccccc4)nc3c2)cc1 [Example 36, 4-{2-[(R)-Amino(phenyl)methyl]-1H-benzimidazol-5-yl}benzonitrile]
2 | 650 nM | CCC(C)(C)c1ccc2[nH]c([C@H]3NCC[C@@H]3O)nc2c1 [Example 37, (2R,3S)-2-[5-(2-Methylbutan-2-yl)-1H-benzimidazol-2-yl]pyrrolidin-3-ol]
3 | 41.9 nM | CCC(C)(C)c1ccc2[nH]c([C@@H](N)[C@@H](C)OC)nc2c1 [Example 38, (1R,2R)-2-Methoxy-1-[5-(2-methylbutan-2-yl)-1H-benzimidazol-2-yl]propan-1-amine]
4 | 54.2 nM | CCC(C)(C)c1ccc2[nH]c([C@@H](N)[C@@H](C)O)nc2c1 [Example 39, (1R,2R)-1-Amino-1-[5-(2-methylbutan-2-yl)-1H-benzimidazol-2-yl]propan-2-ol]
5 | 77.1 nM | C[C@@H](O)[C@H](N)c1nc2cc(-c3ccc(C#N)cc3)ccc2[nH]1 [Example 40, 4-{2-[(1R,2R)-1-Amino-2-hydroxypropyl]-1H-benzimidazol-5-yl}benzonitrile]
6 | 648 nM | CCC(C)(C)c1ccc2[nH]c([C@@H](C)N)nc2c1 [Example 41, (1R)-1-[5-(2-Methylbutan-2-yl)-1H-benzimidazol-2-yl]ethanamine]
7 | 122 nM | N#Cc1ccc(-c2ccc3[nH]c([C@@H](N)c4ccccc4)nc3c2)cc1 [Example 42, 4-{2-[(S)-Amino(phenyl)methyl]-1H-benzimidazol-5-yl}benzonitrile]
8 | 842 nM | N#Cc1ccc(-c2ccc3[nH]c([C@H]4C[C@@H](O)CN4)nc3c2)cc1 [Example 43, 4-{2-[(2R,4R)-4-Hydroxypyrrolidin-2-yl]-1H-benzimidazol-5-yl}benzonitrile]
9 | 890 nM | N#Cc1ccc(-c2ccc3[nH]c([C@H](N)CC(N)=O)nc3c2)cc1 [Example 44, (3R)-3-Amino-3-[5-(4-cyanophenyl)-1H-benzimidazol-2-yl]propanamide]
10 | 203 nM | N#Cc1ccc(-c2ccc3[nH]c([C@@H](N)CC(N)=O)nc3c2)cc1 [Example 45, (3S)-3-Amino-3-[5-(4-cyanophenyl)-1H-benzimidazol-2-yl]propanamide]
11 | 781 nM | CC(C)C[C@@H](N)c1nc2cc(-c3ccc(C#N)cc3)ccc2[nH]1 [Example 47, 4-{2-[(1R)-1-Amino-3-methylbutyl]-1H-benzimidazol-5-yl}benzonitrile]
12 | 469 nM | CC(C)(C)[C@@H](N)c1nc2cc(-c3ccc(C#N)cc3)ccc2[nH]1 [Example 48, 4-{2-[(1R)-1-Amino-2,2-dimethylpropyl]-1H-benzimidazol-5-yl}benzonitrile]
13 | 1050 nM | N#Cc1ccc(-c2ccc3[nH]c([C@@H]4C[C@H](O)CN4)nc3c2)cc1 [Example 49, 4-{2-[(2S,4S)-4-Hydroxypyrrolidin-2-yl]-1H-benzimidazol-5-yl}benzonitrile]
14 | 1840 nM | N#Cc1ccc(-c2ccc3[nH]c([C@H]4NCC[C@@H]4O)nc3c2)cc1 [Example 50, 4-{2-[(2R,3S)-3-Hydroxypyrrolidin-2-yl]-1H-benzimidazol-5-yl}benzonitrile]
15 | 3130 nM | N#Cc1ccc(-c2ccc3[nH]c([C@@H]4CCCCN4)nc3c2)cc1 [Example 51, 4-{2-[(2S)-Piperidin-2-yl]-1H-benzimidazol-5-yl}benzonitrile]
16 | 703 nM | CC(C)[C@H](N)c1nc2cc(-c3ccc(C#N)cc3)ccc2[nH]1 [Example 52, 4-{2-[(1S)-1-amino-2-methylpropyl]-1H-benzimidazol-5-yl}benzonitrile]
17 | 562 nM | CC[C@@H](N)c1nc2cc(-c3ccc(C#N)cc3)ccc2[nH]1 [Example 53, 4-{2-[(1R)-1-aminopropyl]-1H-benzimidazol-5-yl}benzonitrile]
18 | 662 nM | C[C@@H](N)c1nc2cc(-c3ccc(C#N)cc3)ccc2[nH]1 [Example 54, 4-{2-[(1R)-1-aminoethyl]-1H-benzimidazol-5-yl}benzonitrile]

Row | IC50 | SMILES
19 | 77.4 nM | CC1(C)[C@@H]2[C@@H](c3nc4cc(-c5ccc(C#N)cc5)ccc4[nH]3)NC[C@@H]21 [Example 55, 4-{2-[(1R,2S,5S)-6,6-dimethyl-3-azabicyclo[3.1.0]hex-2-yl]-1H-benzimidazol-5-yl}benzonitrile]
20 | 97.5 nM | CC(C)[C@@H](N)c1nc2cc(-c3ccc(C#N)cc3)ccc2[nH]1 [Example 56, 4-{2-[(1R)-1-amino-2-methylpropyl]-1H-benzimidazol-5-yl}benzonitrile]
21 | 2530 nM | CC(C)(C)[C@H](N)c1nc2cc(-c3ccc(C#N)cc3)ccc2[nH]1 [Example 57, 4-{2-[(1S)-1-amino-2,2-dimethylpropyl]-1H-benzimidazol-5-yl}benzonitrile]
22 | 537 nM | CCCC[C@@H](N)c1nc2cc(-c3ccc(C#N)cc3)ccc2[nH]1 [Example 58, 4-{2-[(1R)-1-aminopentyl]-1H-benzimidazol-5-yl}benzonitrile]
23 | 105 nM | N#Cc1ccc(-c2ccc3[nH]c(C4(N)CCCC4)nc3c2)cc1 [Example 59, 4-[2-(1-aminocyclopentyl)-1H-benzimidazol-5-yl]benzonitrile]
24 | 166 nM | CCCC[C@H](N)c1nc2cc(-c3ccc(C#N)cc3)ccc2[nH]1 [Example 60, 4-{2-[(1S)-1-aminopentyl]-1H-benzimidazol-5-yl}benzonitrile]
25 | 698 nM | N#Cc1ccc(-c2ccc3[nH]c([C@@H]4C[C@H](F)CN4)nc3c2)cc1 [Example 61, 4-{2-[(2S,4S)-4-fluoropyrrolidin-2-yl]-1H-benzimidazol-5-yl}benzonitrile]
26 | 1000 nM | C[C@H](N)c1nc2cc(-c3ccc(C#N)cc3)ccc2[nH]1 [Example 64, 4-{2-[(1S)-1-aminoethyl]-1H-benzimidazol-5-yl}benzonitrile]
27 | 2710 nM | CCCCc1ccc2[nH]c(C(C)(C)N)nc2c1 [Example 65, 2-(5-Butyl-1H-benzimidazol-2-yl)propan-2-amine]
28 | 1000 nM | CC(C)(N)c1nc2cc(C3CCCCC3)ccc2[nH]1 [Example 66, 2-(5-Cyclohexyl-1H-benzimidazol-2-yl)propan-2-amine]
29 | 635 nM | CCC(C)(C)c1ccc2[nH]c(C(C)(C)N)nc2c1 [Example 68, 2-[5-(2-Methylbutan-2-yl)-1H-benzimidazol-2-yl]propan-2-amine]
30 | 3900 nM | CCCc1ccc2[nH]c(C(C)(C)N)nc2c1 [Example 69, 2-(5-Propyl-1H-benzimidazol-2-yl)propan-2-amine]
31 | 3160 nM | CC(C)(N)c1nc2cc(-c3cc(F)cc(C#N)c3)ccc2[nH]1 [Example 70, 3-[2-(1-Amino-1-methylethyl)-1H-benzimidazol-5-yl]-5-fluorobenzonitrile]
32 | 3930 nM | CC(C)(N)c1nc2cc(-c3ccc(Cl)c(C#N)c3)ccc2[nH]1 [Example 71, 5-[2-(1-Amino-1-methylethyl)-1H-benzimidazol-5-yl]-2-chlorobenzonitrile]
33 | 2490 nM | CC(C)(N)c1nc2cc(-c3cccc(C#N)c3)ccc2[nH]1 [Example 72, 3-[2-(1-Amino-1-methylethyl)-1H-benzimidazol-5-yl]benzonitrile]
34 | 827 nM | CC(C)(N)c1nc2cc(-c3cccc(Cl)c3C#N)ccc2[nH]1 [Example 73, 2-[2-(1-Amino-1-methylethyl)-1H-benzimidazol-5-yl]-6-chlorobenzonitrile]
35 | 1360 nM | CC(C)(N)c1nc2cc(-c3ccccc3C#N)ccc2[nH]1 [Example 74, 2-[2-(1-Amino-1-methylethyl)-1H-benzimidazol-5-yl]benzonitrile]

Row | SMILES | IC50
36 | C[C@H](O)[C@@H](N)c1nc2cc(-c3ccc(C#N)cc3)ccc2[nH]1 [Example 62, 4-{2-[(1S,25)-1-amino-2-hydroxypropyl]-1H-benzimidazol-5-yl}benzonitrile] | 580 nM
